Laboratory results as given in PubChem BioAssay (NCI).
Several values for one entry are separate records, joined by “and”; a condition that tells them apart may be missing. Identical values can stand only once.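 Briefly, cells in 96-well plates were exposed to five compound concentrations for 48 h, and endpoints were estimated by linear interpolation. The concentration for 50% growth inhibition is given as GI50. TGI: concentration producing complete growth inhibition.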

Tests used:
Experiment in all cases: inhibition of tumour cell growth, NCI panel, 48 h
UACC-257 melanoma = tested on: UACC-257 melanoma
ACHN renal = tested on: ACHN renal
SK-MEL-2 melanoma = tested on: SK-MEL-2 melanoma
SF-295 CNS = tested on: SF-295 CNS
RXF 393 renal = tested on: RXF 393 renal
OVCAR-5 ovarian = tested on: OVCAR-5 ovarian
LOX IMVI melanoma = tested on: LOX IMVI melanoma
UO-31 renal = tested on: UO-31 renal
COLO 205 colon = tested on: COLO 205 colon
SF-268 CNS = tested on: SF-268 CNS

Row | SMILES | TGI (UACC-257 melanoma) | TGI (ACHN renal) | TGI (SK-MEL-2 melanoma) | TGI (SF-295 CNS) | TGI (RXF 393 renal) | TGI (OVCAR-5 ovarian) | TGI (LOX IMVI melanoma) | TGI (UO-31 renal) | TGI (COLO 205 colon) | TGI (SF-268 CNS) | GI50 (UACC-257 melanoma) | GI50 (ACHN renal) | GI50 (SK-MEL-2 melanoma) | GI50 (SF-295 CNS) | GI50 (RXF 393 renal) | GI50 (OVCAR-5 ovarian) | GI50 (LOX IMVI melanoma) | GI50 (UO-31 renal) | GI50 (COLO 205 colon) | GI50 (SF-268 CNS)
1 | CC(=O)Nc1c(Nc2ccccc2)[nH]c(C)nc1=S | > 100 µM | > 100 µM | > 100 µM | > 100 µM | > 100 µM | > 100 µM | > 100 µM | > 100 µM | > 100 µM | > 100 µM |  |  |  |  |  |  |  |  |  | 
2 | C[C@]12CC[C@H]3[C@@H](CC=C4C[C@@H](N5CCCC5)CC[C@@]43C)[C@@H]1C/C(=C\c1cccc(OCCN3CCOCC3)c1)[C@@H]2O | 6.65 µM | 32.5 µM | 31.8 µM | > 100 µM | 3.82 µM | > 100 µM | 7.43 µM | 9.97 µM | 39.3 µM | > 100 µM | 2.55 µM | 4.29 µM | 14.1 µM | 2.96 µM | 1.76 µM | 31 µM | 2.61 µM | 3.11 µM | 3.89 µM | 13.3 µM
3 | CCC(C)[C@H](NC(=O)Nc1cc(C(F)(F)F)cc(C(F)(F)F)c1)C(=O)N[C@@H](Cc1cn(C)cn1)C(=O)OC (some centres undefined) | 1.85 µM | 2.01 µM | 1.89 µM | 1.95 µM | 0.98 µM | 1.83 µM | 1.83 µM | 2.31 µM | 1.89 µM | 1.16 µM | 1.3 µM | 1.4 µM | 1.4 µM | 1.36 µM | 0.523 µM | 1.32 µM | 0.768 µM | 1.52 µM | 1.4 µM | 0.61 µM
4 | O=C(Nc1cccc(O)c1)c1ccc(NC2=C(Cl)C(=O)N(Cc3ccc(Cl)cc3Cl)C2=O)cc1 | 21.6 µM | 3.21 µM | 14.5 µM | 4.07 µM | 4.72 µM | 34.1 µM | 3.16 µM | 3.75 µM | 4.18 µM | 4.75 µM | 7.96 µM | 1.75 µM | 5.29 µM | 1.95 µM | 2.31 µM | 18.8 µM | 1.62 µM | 1.91 µM | 1.9 µM | 2.01 µM
5 | C[N+](C)(C)CC(=O)N/N=C(/C(=O)Nc1ccc(Br)cc1)C1C(=O)NC(=O)NC1=O | > 100 µM | > 100 µM | > 100 µM | > 100 µM | > 100 µM | > 100 µM | > 100 µM | > 100 µM | > 100 µM | > 100 µM |  |  |  |  |  |  |  |  |  | 
6 | OC(COC(c1ccccc1)(c1ccccc1)c1ccccc1)C(O)CC1SCCS1 (centres undefined) | 51.8 µM | 38.3 µM | 34.3 µM |  | 32.1 µM | 44 µM | 32 µM | 24.5 µM | 38.4 µM | 50.9 µM |  |  |  |  |  |  |  |  |  | 
7 | CC1(C)CNc2cc(NC(=O)c3cccnc3NCc3ccncc3)ccc21 | 98.2 µM | > 100 µM | 47.8 µM | > 100 µM | 64.9 µM | > 100 µM | > 100 µM | > 100 µM | > 100 µM | > 100 µM | 28.8 µM | 10.6 µM | 17.2 µM | 24.2 µM | 11.7 µM | 50.9 µM | 23.3 µM | 20 µM | 34.2 µM | 28.1 µM
8 | CCOC(=O)c1cc2c(cc1Cl)SC(=Nc1ccccc1)N(S(=O)(=O)c1ccc(Cl)cc1)S2(=O)=O | 40.3 µM | 28.8 µM | 30.4 µM | 48.6 µM | 36.1 µM | 36.8 µM | 15 µM | 33.3 µM | > 100 µM | 32 µM | 17.6 µM | 14.5 µM | 12.1 µM | 19.5 µM | 11.3 µM | 19.4 µM | 3.17 µM | 15.9 µM | 9.06 µM | 12.1 µM
9 | CC1=C(/C=C/C(C)=C/C2CC(N(C)C)=CC(=O)O2)C(C)(C)CCC1 (centres undefined) | 24.9 µM | 24.8 µM | 27.4 µM | 26.1 µM | 31.1 µM | 24.1 µM | 30.3 µM | 22.7 µM | 27.2 µM | 40.6 µM |  |  |  |  |  |  |  |  |  | 
10 | O=C([CH-]C(=O)c1ccccc1)c1ccccc1.[CH-]1CCCCC1.[CH-]1CCCCC1.[CH-]1CCCCC1.[Sn+4] | 19.2 µM | 31.9 µM | 11.9 µM | 22.1 µM | 10.1 µM | 39.7 µM | 18.9 µM | 25 µM | 16.2 µM | 24.1 µM | 4.29 µM | 13.8 µM | 3.39 µM | 8.1 µM | 2.71 µM | 22.8 µM | 4.61 µM | 12.5 µM | 4.15 µM | 7.64 µM
11 | Cc1cc2c(cc1Cl)S/C(=C/C(=O)O)C(Nc1ccc3ncsc3c1)=NS2(=O)=O | > 46 µM | > 68 µM | > 61.3 µM | > 48.1 µM | > 100 µM | > 42.4 µM | 62.9 µM | > 50.7 µM | > 33.9 µM | > 74.9 µM | > 27.2 µM | > 52.6 µM | > 29.3 µM | > 31.6 µM | 19.8 µM | 23.4 µM | 22.4 µM | 14.8 µM | > 26.7 µM | > 23.9 µM
12 | CC1=C(c2ccccc2)C(O)(c2ccccc2)C(C)C1=O (centres undefined) | > 100 µM | > 100 µM | > 100 µM | 62.6 µM | > 100 µM | > 100 µM | > 100 µM | > 100 µM | > 100 µM | > 100 µM | 55 µM | 35.6 µM | 29.7 µM | 12.7 µM | 17.4 µM | 53.1 µM | 15.3 µM | 13.2 µM | 25.1 µM | 27.4 µM
13 | Cc1csc2[n+]1-c1ccccc1N(C(=O)Nc1ccccc1)C(C)C2 (centres undefined) | > 100 µM | > 100 µM | > 100 µM | > 100 µM | > 100 µM | 99.5 µM | 48.5 µM | > 100 µM | > 100 µM | > 100 µM | > 100 µM | 55.5 µM | > 100 µM | > 100 µM | 50.8 µM | 28.6 µM | 21.6 µM | > 100 µM | > 100 µM | > 100 µM
14 | CC(C)(C)C1CCC2c3c([nH]c4ccccc34)C3C(=O)N(c4ccc(Cl)cc4)C(=O)C3C2C1 (centres undefined) | > 100 µM | > 100 µM | > 10 µM |  | > 100 µM | 0.256 µM | 0.0487 µM | > 100 µM | > 100 µM | > 100 µM | > 100 µM | 76.5 µM and > 10 µM |  |  | 48.5 µM and > 10 µM |  |  | > 100 µM | 49.9 µM and > 10 µM | 53.9 µM and > 10 µM
